Measurements from patent US20030176511A1, “Compositions and methods for treating cardiovascular disorders” (priority 2000, published 2003).
Values belong to the compound of their own block, whether it stands above or below them.

Assays:
[1] = system: tocopherol-mediated peroxidation (TMP); assay: Anti-TMP index; assay type: biochemical
[2] = system: α-tocopheroxyl radical; assay: Tocopheroxyl radical attenuating ability (TRAA); assay type: biochemical; settings: kobs in presence (+) or absence (−) of test compound
[3] = system: restenosis in rabbit abdominal aorta after arterial balloon injury; assay: Intimal thickening (intima and media ratio) in rabbit aorta after arterial balloon injury; assay type: in vivo; settings: rabbits, 0.02% PDA474 in chow for 9 weeks
Description: The intima and media ratio (IMR) was determined by tracing the intimal and medial areas, and dividing their respective total pixel numbers. Higher IMR indicate larger lesions. *Denotes a statistically significant difference with p<0.05.
PDA474 was synthesised and supplied in pure form (99%) by Polysciences, Inc. (400 Valley Road, Warrington, Pa. 18976, USA).
Twelve New Zealand White rabbits were fed a standard rabbit chow (100 g per day) with (n=6) or without (n=6) 0.02 weight % PDA474 (in dry powder form) for 9 weeks. The initial dosage was based on in vitro studies and other useful dosage amounts can be easily derived using a similar approach.
At the end of week 3, the abdominal aorta of all rabbits was injured by ABI. At the end of week 9, the infra-renal abdominal aorta was removed, fixed in 4% buffered formalin, embedded in paraffin, sectioned and stained with Verhoeff Hematoxylin. The intima and media ratio (IMR) was then determined by tracing the intimal and medial areas, and dividing their respective total pixel numbers. Higher IMR indicate larger lesions.

[4] = system: atherosclerotic lesions in apoE−/− mice; assay: Atherosclerotic lesion cross-section areas (morphometry) in apoE−/− mice; assay type: in vivo; settings: lesion area of probucol group relative to controls
Description: Male C57BL/6J mice, homozygous for the disrupted apoE gene (apoE−/−) were fed standard chow (Lab-Feed, Sydney, Australia) until aged 10 weeks. […] The high fat diet (control and probucol-supplemented) was prepared, according to the specifications of the Harlan Teklad diet TD88137. […] After bleeding, mice were gravity-perfused for 5 min with DPBS containing 20 μM BHT and 1 mM EDTA (Buffer A) and aortas removed as described in Letters JM, et al (1999). Briefly, hearts, ascending and descending aortas (past the femoral junction) were excised and carefully cleaned. […] Once cleaned, aortas were separated from the heart taking care to include all aortic material while avoiding heart tissue. To obtain sufficient material for HPLC analysis (i.e., 30-40 mg wet weight tissue) it was necessary to pool 7-8 aortas. Separate pools of aortas were prepared for both groups and then immediately frozen in Buffer A and stored at −80° C. until analyses. Lesions were assessed at four different sites along the aorta, in the aortic root, in the aortic arch, the descending thoracic and in the proximal abdominal aorta, and cross-sections (2-3 μm thick) were prepared and stained with Weigert's hematoxylin-van Gieson.

[5] = system: lipoprotein oxidation in the vessel wall; assay: Aortic lipids, oxidised lipids and antioxidants in apoE−/− mice (HPLC of aortic homogenates); assay type: in vivo
Description: Male C57BL/6J mice, homozygous for the disrupted apoE gene (apoE−/−) were fed standard chow (Lab-Feed, Sydney, Australia) until aged 10 weeks. […] After bleeding, mice were gravity-perfused for 5 min with DPBS containing 20 μM BHT and 1 mM EDTA (Buffer A) and aortas removed as described in Letters JM, et al (1999). Briefly, hearts, ascending and descending aortas (past the femoral junction) were excised and carefully cleaned. […] Once cleaned, aortas were separated from the heart taking care to include all aortic material while avoiding heart tissue. To obtain sufficient material for HPLC analysis (i.e., 30-40 mg wet weight tissue) it was necessary to pool 7-8 aortas. Separate pools of aortas were prepared for both groups and then immediately frozen in Buffer A and stored at −80° C. until analyses. Pooled aortas were snap frozen in liquid nitrogen, pulverised, resuspended in Buffer A, homogenised and then either treated with metaphosphoric acid (for ascorbate) or extracted and the hexane fraction analysed for lipid-soluble antioxidants, cholesterol (C), choleseteryl esters (CE), lipid hydroperoxides (LOOH) and cholesteryl ester hydroxides (CE-OH) by HPLC as described in Methods Enzymol. 1994;233:469489. LOOH and CE-OH were measured as markers of lipoprotein lipid oxidation, as they are the primary and major oxidation products formed when lipoproteins from apoE−/− mice undergo oxidation. […] All compounds were quantified by peak area comparison with authentic standards, and protein determined.

[6] = Plasma lipids and antioxidants in apoE−/− mice; assay type: in vivo
Description: Male C57BL/6J mice, homozygous for the disrupted apoE gene (apoE−/−) were fed standard chow (Lab-Feed, Sydney, Australia) until aged 10 weeks. […] Separate aliquots were acidified with metaphosphoric acid (5%) to stabilize vitamin C prior to freezing and storage at −80° C. The remainder was pooled appropriately and used for ex vivo oxidation initiated by the peroxyl radical generator AAPH and lipoprotein separation by FPLC with UV280nm detection, as described in J Lipid Res. 1 999;40:1104-1112. Lipid-soluble antioxidants and lipids were quantified by HPLC as described in FASEB J. 1999;13:667-675. For ascorbate analysis, frozen acidified samples were thawed, diluted with DPBS to adjust the pH to 7.4 and then immediately subjected to HPLC. Plasma triglycerides were determined enzymatically (Boehringer, Mannheim, Germany).

[7] = Lipids and antioxidants in plasma lipoprotein fractions (size exclusion FPLC) of apoE−/− mice; assay type: in vivo; settings: pooled plasma, 1% w/w probucol, 24 weeks
Description: Plasma was collected from individual mice, pooled, diluted 1:10 with buffer used for FPLC and 300 μL subjected to size exclusion chromatography. Chromatograms shown are representative of two analyses of independent pooled plasma samples. The horizontal bars indicate the corresponding fractions collected for each lipoprotein pool. Plasma was obtained from control and probucol mice and aliquots frozen for subsequent determination of lipids. Separate aliquots were acidified with metaphosphoric acid (5%) to stabilize vitamin C prior to freezing and storage at −80° C. The remainder was pooled appropriately and used for ex vivo oxidation initiated by the peroxyl radical generator AAPH and lipoprotein separation by FPLC with UV280nm detection, as described in J Lipid Res. 1 999;40:1104-1112. […] Two consecutive separations each employing 300 μL undiluted plasma were carried out. The corresponding eluents from both injections were collected, pooled according to fractions corresponding to very low-density lipoprotein (VLDL), LDL, and HDL plus mouse serum albumin (see FIG. 3) and then extracted and analysed for lipids and antioxidants.

[8] = system: plasma lipids; assay: Ex vivo AAPH-induced oxidation of plasma from apoE−/− mice; assay type: in vivo; settings: plasma from probucol-treated mice, 5 mM AAPH, 37° C.
Description: Pooled plasma obtained from control (open symbols) or probucol-treated (closed symbols) mice was exposed to 5 mM of the aqueous peroxyl radical generator AAPH and incubated under air at 37° C. […] Data shown are mean±SD of a single oxidation experiment performed in triplicate using pooled plasma. Where error bars are not shown, error is smaller than the symbol.
Plasma was obtained from control and probucol mice and aliquots frozen for subsequent determination of lipids. Separate aliquots were acidified with metaphosphoric acid (5%) to stabilize vitamin C prior to freezing and storage at −80° C. The remainder was pooled appropriately and used for ex vivo oxidation initiated by the peroxyl radical generator AAPH and lipoprotein separation by FPLC with UV280nm detection, as described in J Lipid Res. 1 999;40:1104-1112.
Enhanced resistance of plasma lipoproteins to oxidation is often used as a measure of antioxidant efficacy. Therefore, we examined AAPH-induced oxidation of pooled plasma from control and treated animals. […] These observations can be explained readily on the basis of tocopherol-mediated peroxidation.

[9] = system: atherosclerosis/restenosis in ballooned New Zealand White rabbits; assay: Atherosclerosis/restenosis in cholesterol-fed, ballooned New Zealand White rabbits; assay type: in vivo; settings: 2% cholesterol diet with 1% probucol for 6 weeks
Description: Aortic endothelial denudation was performed at week 3 by withdrawing an inflated 3F Fogarty balloon embolectomy catheter three times down the length of the aorta. Plasma was obtained from animals as described in Example 1 at the start and end of the study. At the end of the study period, individual aortas were removed and prepared for HPLC analysis as in Example 1. Lipids and antioxidants including probucol and its metabolites, bisphenol and diphenoquinone, were analyzed by RP-HPLC as described previously. Aortas designated for histology were perfusion-fixed with 4% (v/v) formaldehyde and transferred into formalin. Cross-sections (2-3 μm thick) were prepared and stained with Weigert's hematoxylin-van Gieson, and the intima to media ratio determined for three sections.

[10] = system: coronary restenosis after BA; settings: probucol given alone, compared to the placebo, MVP trial; cited from earlier work
[11] = compared to controls, per protein

SMILES: Cc1cc(C(C)(C)C)c(O)c(C(C)(C)C)c1 [BHT]
Anti-TMP index [1]: 8-10
TRAA (decay of α-tocopheroxyl radical; kobs(+)/kobs(−)) [2]: Immediate decay

SMILES: CC(C)(C)c1cc(SSc2cc(C(C)(C)C)c(O)c(C(C)(C)C)c2)cc(C(C)(C)C)c1O [PDA474]
lower IMR in drug-treated animals vs control [3]: 34%
intima and media ratio (IMR) ([3]; ABI at end of week 3, mean±SEM, n=6): 0.76±0.13

drug metabolised to bisphenol or diphenoquinone, aorta ([5]; aorta): ~11%
drug converted into bisphenol or diphenoquinone, plasma ([6]; plasma): ~8%
SMILES: CC(C)(Sc1cc(C(C)(C)C)c(O)c(C(C)(C)C)c1)Sc1cc(C(C)(C)C)c(O)c(C(C)(C)C)c1 [Probucol]
Treatment effect, Abdominal Aorta [4]: 10%
Treatment effect, Arch [4]: 44%
Treatment effect, Descending Thoracic Aorta [4]: 15%
decrease of aortic concentration of C [5, 11]: 5.6 fold
decrease of aortic concentration of total CoQ (ubiquinones plus ubiquinols) [5, 11]: 2.5 fold
decrease of aortic concentration of vitamin E [5, 11]: 2.9 fold
Plasma Triglyceride ([6]; apoE−/− mice, probucol-supplemented diet, 24 weeks): 0.4 ± 0.0 mM
increase of plasma ascorbate ([6]; plasma, probucol treated vs control mice): ~1.4 fold
-TOH in HDL fraction ([7]; HDL plus mouse serum albumin): 1.4
C20:4 in HDL fraction ([7]; HDL plus mouse serum albumin): 24.0
C in HDL fraction ([7]; HDL plus mouse serum albumin): 0.12
Total CoQ in HDL fraction ([7]; HDL plus mouse serum albumin): 0.1
-TOH in LDL fraction ([7]; LDL): 7.8
C20:4 in LDL fraction ([7]; LDL): 50.4
C in LDL fraction ([7]; LDL): 0.96
Total CoQ in LDL fraction ([7]; LDL): 0.4
-TOH in VLDL fraction ([7]; VLDL): 0.56
C18:2 in VLDL fraction ([7]; VLDL): 340
Total CoQ in VLDL fraction ([7]; VLDL): 0.1
probucol level during the oxidation period [8]: remained unchanged
onset and initial rate of accumulation of CE-O(O)H ([8]; vs control plasma): delayed and decreased respectively
proportion of aortic lipids that was oxidized [9]: not affected
atherosclerosis ([9]; aortic denudation at week 3): significantly decreased atherosclerosis
content of plasma and aortic lipids, and absolute amounts of oxidized lipids ([9]; vs controls): significantly decreased
reduction of angiographic lumen loss [10]: 68%
reduction of need for repeat angioplasty at 6 months [10]: 58%
reduction of restenosis rate per segment [10]: 47%
